{"source": "patent US20180214519A1", "about": "“COMBINATION THERAPIES FOR MODULATION OF HISTONE METHYL MODIFYING ENZYMES” (Constellation Pharmaceuticals, Inc., priority 2015, published 2018)", "key": {"[1]": {"system": "PC9 NucRed cells", "experimental": "The non-small cell lung cancer (NSCLC) cell line PC9 was transduced with virus expressing nuclear-restricted RFP (NucRed, Essen Biosciences NucLight), and selected with zeocin (Invivogen). […] Every 3-4 days, media was removed, cells were washed with PBS, and fresh growth media containing 1 μM erlotinib was added. DTPs are defined as cells maintaining red fluorescence, while remaining in a non-proliferative state. After a period of time, DTPs regain proliferative capacity, at which point they are deemed drug tolerant expanded persisters (DTEPs) (ibid). Cells were maintained in 12 well dishes in an Incucyte ZOOM (Essen Biosciences) positioned in a humidified tissue culture incubator for the length of each experiment. Whole well phase and fluorescent images were obtained every 12 hours by the Incucyte ZOOM, and cell number quantified using an automated algorithm defined from a training set of images that identifies red fluorescent signal (positive signal pseudocolored blue in figures). In each experiment, relative cell number is quantitated by dividing cell number at each time point by the initial cell number for each well. In some instances, PC9 NucRed cells were pretreated with EZH2 inhibitors, before counting and reseeding at 5×10^4 cells per well for DTP generation assays as described above.\n48 hours later, 1 μM erlotinib was added to the cells, and images were obtained every 12 hours via the Incucyte imaging system. […] FIG. 15c is a schematic of experimental design for FIG. 15d and FIG. 15e PC9 NucRed cells were pre-treated with Inhbitor 1 as in FIG. 15a and FIG. 15b, however after 48 hours, were treated with 0.1% DMSO instead of erlotinib.\nMedia with fresh compounds was changed every 3-4 days. Phase and fluorescent images obtained every 12 hours with Incucyte imaging platform. Cell number determined by red fluorescent nuclei detection by Incucyte."}, "[2]": {"system": "KARPAS-422 cells", "test": "Cell viability assay (Cell Titer Glo) in KARPAS-422 cells", "type": "cell-based", "conditions": "EZH2 mutant-containing DLBCL cell line KARPAS-422; viability monitored at day 4, day 8 and day 12", "protocol": "For suspension cell lines, cells were seeded at their pre-determined optimal seeding density in a 96 well dish in a volume of 70-90 μl, depending on the number of compounds under investigation in a single assay (i.e. single agent assay versus combination assay). A 10× stock solution of the highest desired concentration of the compound of interest was made in growth media. In parallel, a solution containing the same % of diluent as the 10× compound concentration was made for each compound under investigation, also in growth media. Compound was diluted serially in the diluent/growth media solution, and 10 μl of 10× drug was added to the relevant wells of the 96 well dish containing cells. […] Cells were cultured in the presence of compound for 4 days, at which point 100 μl growth media was added, cells were triturated, and the cell density of the diluent only control treatment was determined. A split ratio was determined based on this density, such that the new cell density of diluent treated cells after splitting would match the original cell density from day 0. […] 50 μl CTG reagent was added to all wells containing cells that remained in the original 96 well dish, followed by a 30 min incubation on an orbital shaker, before a luminescence reading was obtained on a Perkin-Elmer Envision. […]"}, "[3]": {"system": "PC9 cells", "test": "RNA-sequencing and gene set enrichment analysis in PC9 cells", "type": "cell-based", "conditions": "2.5 μM pre-treatment 8 days then 1 μM erlotinib; compared to DMSO pre-treated/erlotinib acutely treated cells", "source_text": "For RNA sequencing (RNA-seq) experiments, RNA was submitted to Ocean Ridge Biosciences (Palm Beach Gardens, Fla.) for quality control, library preparation and sequencing. Samples were processed as per the vendor's protocols (http://www.oceanridgebio.com/rna-sequencing.html). Data was processed as previously described (ibid).\nExperimental gene lists pre-ranked by differential expression were compared against gene sets in the Molecular Signature Database (MSigDB), v4.0 (http://www.broadinstitute.org/gsea/msigdb/index.jsp). GSEA analyses were run using the weighted scoring option, meandiv normalization, and excluding MSigDB gene sets with more than 1500 or fewer than 15 member genes.\nFor transcriptomic analysis of PC9 cells, cells were pretreated for 8 days with 2.5 μM CPI-360, with one splitting event and reapplication of fresh drug at day 4. On day 8, without splitting, 0.1% (v/v) DMSO or 1 μM erlotinib was added directly to each vessel, mixed, and incubated for 6 or 24 hours before harvesting. Cells were harvested by aspiration of media, and direct application of buffer RLT to the cell culture plate. RNA was purified as described above.\nPC9 cells were pre-treated with 2.5 μM Inhbitor 2 or DMSO for 8 days, with splitting, re-seeding and compound re-fresh at day 4. […] RNA was extracted, and analyzed via RNA-sequencing, then gene set enrichment analysis using msigdb v4.0 (all categories). […]"}, "[4]": {"conditions": "pre-treatment 4 days, then 1 μM erlotinib, compared to erlotinib only treated cells"}}, "note": "Where two headings read alike, the source gives them in different places.", "data": [{"smiles": "CCS(=O)(=O)N1CCC([C@@H](C)n2c(C)c(C(=O)NCc3c(OC)cc(C)[nH]c3=O)c3ccccc32)CC1", "note": "[Inhibitor 1]", "values": [{"measurement": "reduction in cell number", "setting": "[1]; 5 μM pre-treatment followed by acute 1 μM erlotinib, compared to DMSO pretreatment, acute erlotinib treatment", "value": 80, "unit": "%"}, {"measurement": "reduction in cell number", "setting": "[1]; 5 μM pretreatment for 4 days, then acute DMSO treatment, compared to DMSO pretreated cells", "value": 15, "unit": "%"}, {"measurement": "drug tolerant persister (DTP) cells remaining after initial erlotinib treatment", "setting": "[1]; [4]", "value": "a reduction in the number of drug tolerant persister (DTP) cells"}, {"measurement": "initiation of cell growth inhibition", "setting": "[1]; [4]", "value": "faster initiation of cell growth inhibition"}, {"measurement": "outgrowth of erlotinib-resistant cells", "setting": "[1]; [4]", "value": "delayed/reduced outgrowth of erlotinib-resistant cells"}, {"measurement": "sensitivity of cell viability to treatment", "setting": "[2]", "value": "temporal sensitivity"}]}, {"smiles": "COc1cc(C)[nH]c(=O)c1CNC(=O)c1c(C)n([C@H](C)C2CCOCC2)c2ccccc12", "note": "[Inhibitor 2]", "values": [{"measurement": "altered pathways (gene set enrichment analysis)", "setting": "[3]", "value": "3 out of the top 5 altered pathways are interferon-related pathways"}]}, {"smiles": "C#Cc1cccc(Nc2ncnc3cc(OCCOC)c(OCCOC)cc23)c1", "note": "[erlotinib, reference compound]", "values": [{"measurement": "GI90 dose", "setting": "[1]; PC9 cells", "value": 1000, "unit": "nM"}]}]}
